Experimental data as given in ChEMBL document CHEMBL3997785, “Optimization of 2-Anilino 4-Amino Substituted Quinazolines into Potent Antimalarial Agents with Oral in Vivo Activity” (J Med Chem, 2017).
In brackets after ≈: the same amount, converted by molar mass. Activity calls are given as the source filed them. No cut-off for these calls is given here.

Columns and labels:
[1] = Hepatic extraction ratio in mouse liver microsomes at 1 uM in presence of NADPH by LC-MS method; format: ADME, microsome; details: read-out: ERH
[2] = Half life in mouse liver microsomes at 1 uM in presence of NADPH by LC-MS method; format: ADME, microsome
Plasmodium falciparum [3] = experiment: Antimalarial activity against synchronous culture of Plasmodium falciparum 3D7 infected in human erythrocytes assessed as development arrest at ring stage of asexual life cycle leading to parasite death at 10 times EC50 up to 48 hrs by Giemsa-staining based assay relative to control; format: functional, cell-based
Plasmodium berghei [4] = experiment: Antimalarial activity against Plasmodium berghei ANKA infected Swiss black mouse at 20 mg/kg, ip administered for 4 days starting 4 hrs post infection by microscopic method; format: functional
[5] = Half life in human liver microsomes at 1 uM in presence of NADPH by LC-MS method; format: ADME, microsome
Plasmodium falciparum [6] = experiment: Antimalarial activity against Plasmodium falciparum NF54 harboring pfs16-LUC-GFP ring stage gametocytes after 24 hrs by MitoTracker Red staining based confocal microscopy; format: functional; details: NF54, 24 h
Plasmodium falciparum [7] = experiment: Antimalarial activity against Plasmodium falciparum 3D7 infected in human erythrocytes assessed as arrest at trophozoite stage of asexual life cycle leading to parasite death at 10 times EC50 up to 48 hrs by Giemsa-staining based assay relative to control; format: functional, cell-based
[8] = Intrinsic clearance in human liver microsomes at 1 uM in presence of NADPH by LC-MS method; format: ADME, microsome; details: read-out: CLH
HepG2 = experiment: Cytotoxicity against human HepG2 cells assessed as growth inhibition after 48 hrs by Cell Titer-Glo assay; format: cell-based; details: HepG2, 48 h
Plasmodium falciparum [9] = experiment: Antimalarial activity against chloroquine and mefloquine resistant Plasmodium falciparum W2mef infected in human erythrocytes incubated for 72 hrs by LDH assay; format: functional, cell-based
Liver [10] = experiment: Drug metabolism in human liver microsomes assessed as N-demethylation of methyl piperidine or piperazine at 1 uM after 60 mins in presence of NADPH by LC-MS method; format: ADME, microsome; details: 1 h
[11] = Selectivity index, ratio of EC50 for human HepG2 cells to EC50 for Plasmodium falciparum 3D7 asexual blood stage infected in human erythrocytes; format: toxicity, cell-based; details: read-out: Ratio EC50
Plasma [12] = experiment: Drug uptake in Plasmodium berghei ANKA infected Swiss black mouse plasma at 20 mg/kg, po via gavage measured after 20 hrs; format: ADME, organism-based; details: in vivo
Plasmodium falciparum [13] = experiment: Antimalarial activity against Plasmodium falciparum NF54 harboring pfs16-LUC-GFP early stage 1 to 3 gametocytes after 48 hrs by MitoTracker Red staining based confocal microscopy; format: functional; details: NF54, 48 h
Plasmodium falciparum [14] = experiment: Antimalarial activity against synchronous culture of Plasmodium falciparum 3D7 ring stage parasite infected in human erythrocytes incubated for 6 hrs followed by compound wash out and measured after 24 hrs by NanoGlo-reagent based bioluminescence assay; format: functional, cell-based
Plasmodium falciparum [15] = experiment: Antimalarial activity against Plasmodium falciparum 3D7 asexual blood stage infected in human erythrocytes incubated for 72 hrs by LDH assay; format: functional, cell-based; details: 3D7, 72 h
Plasmodium falciparum [16] = experiment: Antimalarial activity against synchronous culture of Plasmodium falciparum 3D7 ring stage parasite infected in human erythrocytes incubated for 24 hrs followed by compound wash out and measured after 24 hrs by NanoGlo-reagent based bioluminescence assay; format: functional, cell-based; details: 3D7, 24 h
Plasmodium falciparum [17] = experiment: Antimalarial activity against synchronous culture of Plasmodium falciparum 3D7 ring stage parasite infected in human erythrocytes incubated for 3 hrs followed by compound wash out and measured after 24 hrs by NanoGlo-reagent based bioluminescence assay; format: functional, cell-based
[18] = Aqueous solubility of the compound at pH 2 by nephelometry; format: physicochemical
Liver [19] = experiment: Drug metabolism in human liver microsomes assessed as mono-oxygenation at 6th position of quinazoline at 1 uM after 60 mins in presence of NADPH by LC-MS method; format: ADME, microsome; details: 1 h
[20] = Aqueous solubility of the compound at pH 6.5 by nephelometry; format: physicochemical
Plasmodium berghei [21] = experiment: Antimalarial activity against Plasmodium berghei ANKA infected Swiss black mouse model at 20 mg/kg administered via oral gavage for 4 days starting 4 hrs post infection by microscopic method; format: functional
Liver [22] = experiment: Drug metabolism in mouse liver microsomes assessed as N-demethylation of methyl piperidine or piperazine at 1 uM after 60 mins in presence of NADPH by LC-MS method; format: ADME, microsome; details: 1 h
Plasma [23] = experiment: Drug uptake in Plasmodium berghei ANKA infected Swiss black mouse plasma at 20 mg/kg, ip measured after 20 hrs; format: ADME, organism-based; details: in vivo
[24] = Intrinsic clearance in mouse liver microsomes at 1 uM in presence of NADPH by LC-MS method; format: ADME, microsome; details: read-out: CLH
Plasmodium falciparum [25] = experiment: Antimalarial activity against Plasmodium falciparum NF54 harboring pfs16-LUC-GFP late stage 4 to 5 gametocytes after 48 hrs by MitoTracker Red staining based confocal microscopy; format: functional; details: NF54, 48 h
[26] = Hepatic extraction ratio in human liver microsomes at 1 uM in presence of NADPH by LC-MS method; format: ADME, microsome; details: read-out: ERH
[27] = Ratio of EC50 for Plasmodium falciparum NF54-pfs16-LUC-GFP early stage gametocytes to EC50 for Plasmodium falciparum 3D7 asexual blood stage infected in human erythrocytes; format: functional
Liver [28] = experiment: Drug metabolism in mouse liver microsomes assessed as mono-oxygenation at 6th position of quinazoline at 1 uM after 60 mins in presence of NADPH by LC-MS method; format: ADME, microsome; details: 1 h
[29] = Ratio of EC50 for Plasmodium falciparum NF54-pfs16-LUC-GFP ring stage gametocytes to EC50 for Plasmodium falciparum 3D7 asexual blood stage infected in human erythrocytes; format: functional
Liver [30] = experiment: Drug metabolism in mouse liver microsomes assessed as O-demethylation of 6 and 7 methoxy groups at 1 uM after 60 mins in presence of NADPH by LC-MS method; format: ADME, microsome; details: 1 h
Liver [31] = experiment: Drug metabolism in human liver microsomes assessed as O-demethylation of 6 and 7 methoxy groups at 1 uM after 60 mins in presence of NADPH by LC-MS method; format: ADME, microsome; details: 1 h

SMILES | hepatic extraction ratio at 1 µM [1] | half-life at 1 µM [2] | Activity (Plasmodium falciparum [3]) | half-life at 1 µM [5] | EC50 (Plasmodium falciparum [6]) | Activity (Plasmodium falciparum [7]) | microsomal CLint at 1 µM [8] | EC50 (HepG2) | EC50 (Plasmodium falciparum [9]) | Drug metabolism (Liver [10]) | selectivity ratio [11] | Drug uptake (Plasma [12]) | EC50 (Plasmodium falciparum [13]) | EC50 (Plasmodium falciparum [14]) | EC50 (Plasmodium falciparum [15]) | solubility kinetic [18] | solubility kinetic [20] | microsomal CLint at 1 µM [24] | EC50 (Plasmodium falciparum [25]) | hepatic extraction ratio at 1 µM [26] | further results
CN1CCN(CCNc2nc(Nc3ccc(Cl)c(F)c3)nc3ccccc23)CC1.Cl.Cl | 0.44 | 0.783 h | Active | 1.28 h | 0.207 µM | inactive | 23 µL/min/mg | 7.5 µM | 0.057 µM | Metabolite_Detected | 275 | Active | 0.453 µM | 3.12 µM | 0.027 µM | > 90 µM | 10.9 to 22 µM | 37 µL/min/mg | 4 µM | 0.47 | Activity (Plasmodium berghei [4]): >98%; Activity (Plasmodium falciparum [14]): Dose dependent effect; EC50 (Plasmodium falciparum [16]): 0.637 µM; EC50 (Plasmodium falciparum [17]): 3.34 µM; Drug metabolism (Liver [19]): Metabolite_Detected; Activity (Plasmodium berghei [21]): >90%; Drug metabolism (Liver [22]): Metabolite_Detected; Drug uptake (Plasma [23]): Active; Ratio EC50 [27]: 15 - 25; Drug metabolism (Liver [28]): Metabolite_Detected; Ratio EC50 [29]: 10
CCN(CC)CCCC(C)Nc1ccnc2cc(Cl)ccc12 (stereo not given) [CHLOROQUINE] | – | – | – | – | 0.02 µM | – | – | – | – | – | – | – | – | 0.643 µM | 0.023 µM | – | – | – | > 40 µM | – | EC50 (Plasmodium falciparum [16]): 0.286 µM; EC50 (Plasmodium falciparum [17]): 0.608 µM
COc1cc2nc(Nc3ccc(F)cc3)nc(NCc3ccccc3)c2cc1OC | 0.43 | 0.817 h | – | > 4.12 h | – | – | < 7 µL/min/mg | 2.8 µM | – | – | 109 | – | – | – | 0.041 µM | 1.6 to 3.1 µM (≈ 0.647 to 1.25 µg/mL) | 1.6 to 3.1 µM (≈ 0.647 to 1.25 µg/mL) | 35 µL/min/mg | – | < 0.22 | Drug metabolism (Liver [30]): Metabolite_Detected; Drug metabolism (Liver [31]): Metabolite_Detected
CN1CCC(Nc2nc(Nc3ccc(Cl)c(F)c3)nc3ccccc23)CC1.Cl.Cl | 0.16 | 3.2 h | Active | 3.02 h | 0.22 µM | inactive | 10 µL/min/mg | 5.1 µM | 0.061 µM | Metabolite_Detected | 179 | Active | 0.554 µM | – | 0.028 µM | > 90 µM | 4.2 to 8.4 µM | 9 µL/min/mg | 2.7 µM | 0.28 | Drug metabolism (Liver [19]): Metabolite_Detected; Drug metabolism (Liver [22]): Metabolite_Detected; Drug uptake (Plasma [23]): Active; Ratio EC50 [27]: 15 - 25; Drug metabolism (Liver [28]): Metabolite_Detected; Ratio EC50 [29]: 10
